Source: patent publication US20120095325A1, “TREATMENT OF BRAIN DISEASES VIA ULTRASOUND/MAGNETIC TARGETING DELIVERY AND TRACING OF THERAPEUTIC AGENTS” (Chang Gung Medical Foundation, Linkou Branch, priority 2010, published 2012)
In brackets after ≈: the same amount, converted by molar mass.

Experiments:
[1] = cited from earlier work
breast carcinoma = details: cited from earlier work
Rat glioma C6 cells = assay: Cell toxicity in vitro, XTT assay; type: cell-based; details: 12 hrs, no magnetic field
Protocol: Rat glioma C6 cells were cultured in the culture medium RPMI 1640 supplemented with 2.2 mg/mL sodium carbonate, 10% FBS, 50 μg/mL gentamycin, 50 μg/mL penicillin and 50 μg/mL streptomycin at 37° C. and 5% CO2. Approximately 10,000 cells were placed in each well of a 96-well culture plate and incubated in a humidified chamber at 37° C. and 5% CO2 for 24 hrs.
Before counting viable cells by the XTT assay, the culture medium in each well was removed and cells were incubated in 120 μL of XTT for 3 hrs. After the reaction, a 100 μL aliquot of the solution in each well was sampled and transferred to a 96-well counting dish, followed by measuring absorbance at OD490 using an ELISA reader, so as to determine cell viability (%). The experimental results were expressed as mean±SD. The in vitro cytotoxicities of MNPs, epirubicin and epirubicin-MNPs on C6 cells were evaluated by the IC50 values thereof.

in vivo = details: Sprague-Dawley, rat
Protocol: All animal experiments were approved by the Institutional Animal Care and Use Committee of Chang Gung University and adhered to their experimental animal care guidelines. […] Brain tumors were induced in another 14 rats by injection of cultured C6 tumor cells. Briefly, C6 tumor cells (10^6 cells/plate) were injected into the brains using a microdialysis pump system (CMA Microdialysis). Animals underwent FUS treatment on Day 10 after tumor implantation to determine if the method could open an area of the BBB sufficiently large to cover the area of the induced tumors.
Before the FUS treatment, the rats were anesthetized by i.p. injection of chlorohydrate (30 mg/kg). The top of the cranium of each rat was shaved with clippers, and a PE-50 catheter was inserted into the jugular vein. The animal's head was attached tightly to a 4-cm^2 thin-film window directly under an acrylic water tank. The animal's cranial opening was filled with degassed water to serve as an acoustic coupling device. SonoVue® SF6-coated US microbubbles (mean diameter 2-5 μm, 2.5 μg/kg; Bracco) were administered i.v. before sonication (with a time lapse<10 s). Each bolus injection contained 0.1 mL of microbubble/kg of body weight mixed with 0.2 mL of saline solution. A heparin flush (0.2 mL) was subsequently performed.
Animal experiments were monitored using the 3-T magnetic resonance imager to localize the geometric center of the FUS and the energy exposure site. US was delivered to the brain transcranially using a MR-compatible spherical transducer (diameter, 60 mm; radius of curvature, 80 mm; frequency, 400 kHz, electric-to-acoustic efficiency, 70%; Imasonics) with the center of the focal zone positioned at a penetration depth of 2 to 3 mm in each hemisphere. Single burst-mode US was delivered, with a burst length of 10 ms, a pulse-repetition frequency of 1 Hz, and total sonication duration of 120 s. For optimization studies, the input electric power used was 2 W, corresponding to an acoustic negative peak (i/e., spatial-peak, temporal-peak) pressure amplitude measured through the animal cranium equal to 0.62 MPa.
In the MT treatment, a permanent magnet having a peak magnetic flux density of 0.18 T, 0.4 T or 0.55 T was used to produce an inhomogeneous magnetic field. To concentrate the magnetic flux density onto the disrupted region of the BBB, the magnet was tilted at an angle relative to the animal's brain, attached to the animal's scalp, and supported and tightened using a custom-made plastic belt for the desired duration (3-24 hrs). MRI images were acquired immediately after removal of the magnet.
Animals' brains were monitored by MRI after the FUS treatment and/or the MT treatment. All MRI images were acquired on a 3-T scanner using the standard wrist coil with an inner diameter of 13 cm. The animals were anesthetized with 2% isoflurane throughout the MRI imaging process, placed in an acrylic holder, and positioned in the center of the magnet. An i.v. bolus (0.1 mmol/kg) of gadopentetate dimeglumine MRI contrast agent (Magnevist; Berlex) was administered before scanning. To identify the region of the BBB disrupted by the FUS treatment, contrast-enhanced T1 turbo spin-echo sequences were acquired using the following parameters: repetition/echo time, 780 ms/15 ms; slice thickness, 1.4 mm; matrix size, 128×256; field of view, 39×60 mm (resolution, 0.3×0.3 mm). T2-weighted images were obtained to produce R2 maps both in gel phantom or in vivo experiments by using a double-TE spinecho sequence and acquired three times, using the following parameters: repetition time, 3,860 ms, echo time, 8/14, 28/57, and 85/228 ms; matrix, 128×256; field of view, 38×76 mm (resolution, 0.3×0.3 mm); and slice thickness, 1.4 mm.

concentration at 6 hr (in vivo) [ng/g]	epirubicin concentration measured in tissues per iron (range) (in vivo)	epirubicin delivered, assessed by ICP-OES/HPLC (in vivo)	epirubicin delivered, assessed by MRI (in vivo)	mean immobilization ratio in tissues (in vivo) [μg epirubicin/mg iron ion]	SMILES	doxorubicin delivered into normal brains by FUS ([1]; FUS treatment used safely)	doxorubicin delivery by FUS ([1]; increased delivery, at the expense of increased damage to brain tissue)	therapeutic range reported in vivo (breast carcinoma; human, in vivo) [ng/g tumor]	clinical response rate (breast carcinoma; patients with breast carcinoma) [%]	IC50 (Rat glioma C6 cells) [µg/mL]	epirubicin accumulated in tissue (in vivo)
					COc1cccc2c1C(=O)c1c(O)c3c(c(O)c1C2=O)C[C@@](O)(C(=O)CO)C[C@@H]3O[C@H]1C[C@H](N)[C@H](O)[C@H](C)O1 [doxorubicin]	886±327 ng doxorubicin per gram of tissue	5,336±659 ng/g	819±482	39		
21700	383-415 μg epirubicin/mg iron ion	1,162±1,028 ng/g	1,197±226 ng/g	395.6±17.3	COc1cccc2c1C(=O)c1c(O)c3c(c(O)c1C2=O)C[C@@](O)(C(=O)CO)C[C@@H]3O[C@H]1C[C@H](N)[C@@H](O)[C@H](C)O1 [epirubicin]					6.7 (≈ 12.3 µM)	1,336±1,182 ng epirubicin per gram of tissue
